# Experiments:
# rats [1] = experiment: Analgesic effect of ultra-low dose alpha-2 receptor antagonist administered alone, tail flick and paw pressure tests; assay type: in vivo, rat
# Description: Baseline latencies were obtained every 5 minutes for 15 minutes prior to injection of either vehicle (saline 0.9%) or atipemazole and tested every 30 minutes for 3 hours. Data were converted to % maximum possible effect.
# (§1) Experiments were conducted using adult male Sprague-Dawley rats (Charles River, St. Constant, QC, Canada) weighing between 200-250 grams. Animals were housed individually in standard laboratory cages, maintained on a 12-hour light/dark cycle, and provided with food and water ad libitum. The surgical placement of chronic indwelling intrathecal catheters (polyethylene PE 10 tubing, 7.5 cm) into the spinal subarachnoid space was made under 4% halothane anesthesia, using the method of Yaksh and Rudy Physiol. Behav. 1976 7:1032-1036). Specifically, the anesthetized animal was placed prone in a stereotaxic frame, a small incision made at the back of the neck, and the atlanto-occipital membrane overlying the cisterna magna was exposed and punctured with a blunt needle. The catheter was inserted through the cisternal opening and slowly advanced caudally to position its tip at the lumbar enlargement. The rostral end of the catheter was exteriorized at the top of the head and the wound closed with sutures. Animals were allowed 3-4 days recovery from surgery and only those free from neurological deficits, such as the hindlimb or forelimb paralysis or gross motor dysfunction, were included in the study. All drugs were injected intrathecally as solutions dissolved in physiological saline (0.9%) through the exteriorized portion of the catheter at a volume of 10 μl followed by a 10 μl volume of 0.9% saline to flush the catheter.
# (§2) The tail flick test (D'amour & Smith, J. Pharmacol. Exp. Ther. 1941 72:74-79) was used to measure the response to a thermal nociceptive stimulus. Radiant heat was applied to the distal third of the animal's tail and the response latency for tail withdrawal from the source was recorded using an analgesia meter (Owen et al., J. Pharmacol. Methods 1981 6:33-37)). The stimulus intensity was adjusted to yield baseline response latencies between 2-3 seconds. To minimize tail damage, a cutoff of 10 seconds was used as an indicator of maximum antinociception.
# (§3) The paw pressure test (Loomis et al., Pharm. Biochem. 1987 26:131-139) was used to measure the response to a mechanical nociceptive stimulus. Pressure was applied to the dorsal surface of the hind paw using an inverted air-filled syringe connected to a gauge and the value at which the animal withdrew its paw was recorded. A maximum cutoff pressure of 300 mmHg was used to avoid tissue damage. Previous experience has established that there is no significant interaction between the tail flick and paw pressure tests (Loomis et al., Can. J. Physiol. Pharmacol. 1985 63:656-662).
# The analgesic effect of an ultra-low dose of an alpha-2 receptor antagonist administered alone was examined. Atipemazole was administered systemically, in three successive administrations, at 20 ng/kg or 200 ng/kg.
# The analgesic effect of an ultra-low dose of an alpha-2A receptor antagonist administered alone was also examined. BRL 44408 was administered intrathecally, in a single administration, at 1.65 ng. In another study, three successive doses of BRL 44408 (1.65 ng) were administered intrathecally.
# (§4) For the in vivo studies, tail flick and paw pressure values were converted to a maximum percentage effect (M.P.E.): M.P.E.=100×[post-drug response−baseline response]/[maximum response−baseline response]. Data represented in the figures are expressed as mean (±S.E.M.). The ED50 values were determined using a non-linear regression analysis (Prism 2, GraphPad Software Inc., San Diego, Calif., USA). Statistical significance (p<0.05, 0.01. or 0.001) was determined using a one-way analysis of variance followed by a Student Newman-Keuls post hoc test for multiple comparisons between groups.
# rats [2] = experiment: Formalin test, persistent inflammatory pain model; assay type: in vivo, rat; conditions: atipemazole alone sc 20 minutes prior to 1% formalin into hind paw; dark phase; N=4; FIGS. 15A, 15B
# Description: In a further experiment, the analgesic effect of atipemazole was examined using the formalin test, a persistent inflammatory pain model. The experiment was conducted with rats during the dark phase of the light-dark cycle. Rats were administered 1% formalin and pain behaviour was assessed by a weighted score. Atipemazole, morphine, or vehicle was injected by subcutaneous injection 20 minutes prior to formalin injection into the plantar surface of the rat hind paw. The behavior was evaluated in 5 min intervals, and the severity of the response was determined.
# The formalin test is a widely used tonic model of continuous pain resulting from formalin-induced tissue injury. It is a useful model, particularly for the screening of novel compounds, since it encompasses inflammatory, neurogenic, and central mechanisms of nociception. We used 1% formalin and assessed pain behavior by a weighted score. […]
# Briefly, the nociceptive behavior was assessed as follows: (1) no favouring of the injected hind paw, (2) favouring, (3) complete elevation of the hind paw from the floor, and (4) licking or flinching. The behavior was evaluated in 5 min intervals, and the severity of the response was determined by the following formula: (0×the time spent in category 1, 1×the time spent in category 2, 2×the time spent in category 3, 3×the time spent in category 4).
# rats [3] = experiment: Potentiation of morphine analgesia and acute morphine tolerance, tail flick and paw pressure tests; assay type: in vivo, rat
# Description: as §1, §2, §3
# The effects of ultra-low doses of atipemazole, yohimbine, idazoxan and mirtazapine, as well as the selective alpha-2A receptor antagonist BRL 44408, were also tested for potentiation of acute analgesic action of spinal or subcutaneous morphine. Acute opioid tolerance was induced by three serial intrathecal morphine injections (15 μg) or systemic morphine injections (2.5 mg/kg sc). Rats were administered morphine alone, a combination of morphine (15 μg intrathecally or 2.5 mg/kg sc) and an ultra low dose of atipemazole, yohimbine, idazoxan, mirtazapine, or BRL 44408. Results for atipemazole are depicted in FIGS. 2A, 2B, 11A and 11B. Results for yohimbine are depicted in FIGS. 6A and 6B. Results for idazoxan are depicted in FIGS. 10A and 10B. Results for mirtazapine are depicted in FIGS. 8A and 8B. Results for BRL 44408 are depicted in FIGS. 14A and 14B.
# as §4, with “Statistical significance (p<0.05, 0.01. or 0.001) was determined using a one-way analysis of variance followed by a Student Newman-Keuls post hoc test for multiple comparisons between groups.” left out
# spinal alpha-2 receptors = experiment: Inhibition of spinal clonidine analgesia by alpha-2 receptor antagonists (tail flick / paw pressure); assay type: in vivo, rat; conditions: tail flick test, FIG. 12
# Description: Experiments were conducted using adult male Sprague-Dawley rats (Charles River, St. Constant, QC, Canada) weighing between 200-250 grams. Animals were housed individually in standard laboratory cages, maintained on a 12-hour light/dark cycle, and provided with food and water ad libitum. The surgical placement of chronic indwelling intrathecal catheters (polyethylene PE 10 tubing, 7.5 cm) into the spinal subarachnoid space was made under 4% halothane anesthesia, using the method of Yaksh and Rudy Physiol. Behav. 1976 7:1032-1036). […]
# The tail flick test (D'amour & Smith, J. Pharmacol. Exp. Ther. 1941 72:74-79) was used to measure the response to a thermal nociceptive stimulus. Radiant heat was applied to the distal third of the animal's tail and the response latency for tail withdrawal from the source was recorded using an analgesia meter (Owen et al., J. Pharmacol. Methods 1981 6:33-37)). […]
# The paw pressure test (Loomis et al., Pharm. Biochem. 1987 26:131-139) was used to measure the response to a mechanical nociceptive stimulus. Pressure was applied to the dorsal surface of the hind paw using an inverted air-filled syringe connected to a gauge and the value at which the animal withdrew its paw was recorded. […]
# rats [4] = conditions: morphine, cited from earlier work
structure (smiles),measurement,setting,value
CCC1(c2cnc[nH]2)Cc2ccccc2C1 [atipemazole],"analgesic response, antagonist alone, repeated administration","rats [1]; atipemazole 0.8 ng intrathecally alone at 90 minute intervals, FIGS. 2A, 2B",incremental but weak analgesic response
same,"analgesic effect, antagonist alone","rats [1]; atipemazole 0.8 ng intrathecally alone, FIGS. 3A, 3B","weak, albeit insignificant, analgesic effect"
same,"antinociceptive effect in the tail flick test, dark phase","rats [1]; atipemazole 200 ng/kg sc, rats on reverse light/dark cycle, administered during the dark phase, tested every 30 minutes for 3 hours",did not produce a significant antinociceptive effect
same,"analgesic response in the tail flick test, antagonist alone","rats [1]; atipemazole 20 and 200 ng/kg sc alone at 90 minute intervals, tail flick, FIG. 11A",delayed analgesic response
same,analgesia in the formalin test (weighted pain score),rats [2],as effective as morphine
same,effect on acute tolerance to the analgesic actions of spinal morphine,"rats [3]; atipemazole 0.8 ng with morphine 15 μg intrathecally, three injections at 90 minute intervals, FIGS. 2A, 2B",prevented the decline of the analgesic effect of morphine
same,effect on acute morphine analgesia,"rats [3]; atipemazole 0.8 or 0.08 ng with morphine 15 μg intrathecally, FIGS. 3A, 3B",potentiates opioid analgesia
same,effect on acute tolerance to morphine (loss of response),"rats [3]; atipemazole 20 or 200 ng/kg sc with morphine 2.5 mg/kg sc, three injections at 90 minute intervals, FIGS. 11A, 11B",significantly reduced the loss of response to morphine alone
"CC1c2ccccc2CN1CC1=NCCN1.O=C(O)/C=C\C(=O)O (stereo not drawn) [BRL 44408, 2-[2H-(1-Methyl-1,3-dihydroisoindole)methyl]-4,5-dihydroimidazole maleate]","analgesia after a single administration, antagonist alone","rats [1]; BRL 44408 1.65 ng intrathecally alone, single administration, relative to saline, FIGS. 13A, 13B","significant analgesia, relative to saline administration, after 60 minutes"
same,"course and duration of analgesia after a single administration, antagonist alone","rats [1]; BRL 44408 1.65 ng intrathecally alone, single administration, FIGS. 13A, 13B",increased and persisted for the duration of the study (180 minutes)
same,antagonism of clonidine analgesia,spinal alpha-2 receptors; BRL 44408 3.3 μg with clonidine 13.3 μg intrathecally,did not antagonize clonidine
same,antagonism of clonidine analgesia,spinal alpha-2 receptors; BRL 44408 16.5 μg with clonidine 13.3 μg intrathecally,antagonized clonidine analgesia
same,effect on morphine analgesia after a single administration,"rats [3]; BRL 44408 1.65 ng with morphine 15 μg intrathecally once, relative to morphine alone, FIGS. 13A, 13B",significantly increased morphine analgesia
same,effect on analgesic action of morphine in the acute tolerance study,"rats [3]; BRL 44408 1.65 ng with morphine intrathecally, three injections at 90 minute intervals, FIGS. 14A, 14B",increased the acute analgesic action of morphine
c1ccc2c(c1)OCC(C1=NCCN1)O2 (stereo not drawn) [idazoxan],"analgesic response, antagonist alone, repeated administration","rats [1]; idazoxan intrathecally alone, ultra-low dose, repeated",no significant analgesic response
COC(=O)[C@@H]1[C@H]2C[C@H]3c4[nH]c5ccccc5c4CCN3C[C@@H]2CC[C@@H]1O [yohimbine],"analgesic response, antagonist alone, repeated administration","rats [1]; yohimbine 0.024 ng intrathecally alone at 90 minute intervals, FIGS. 6A, 6B",no significant analgesic response
CN1CC[C@]23c4c5ccc(O)c4O[C@H]2[C@@H](O)C=C[C@H]3[C@H]1C5 [morphine],ED50 dose during the dark phase,rats [4]; dark phase of light-dark cycle,0.25 mg/kg
same,ED50 dose during the light phase,rats [4]; light phase of light-dark cycle,5 mg/kg
same,potency in the dark phase compared to the light phase,rats [4]; nociceptive testing,10 fold
same,analgesic response to repeated morphine,"rats [3]; morphine 2.5 mg/kg sc alone, three injections at 90 minute intervals, both tests, FIGS. 11A, 11B",rapid decay of the analgesic response
same,decline of the analgesic effect of morphine observed after the first injection,"rats [3]; three successive intrathecal doses of morphine 15 μg at 90 minute intervals, end of the 240 minute test period, FIGS. 2A, 2B",~80%

# Source: patent US20110053913A1, “Methods and Therapies for Alleviating Pain” (priority 2009, published 2011)
